Experiment [1] deals with T1, p85 and p110a (PI3K catalytic sub-unit) interaction (Homo sapiens, UniProt P27986).
T1 construct: Whole cell lysates have been imunoprecipitated with anti-p85 antibody; endogenous in cells; host or cells: MCF7, BT474, MDA-MB-453
The experiment can be described thus: Immunoprecipitation with anti-p85, blot anti-p110α, in transfected cells. In kind it is cell-based. Particulars: transfected cells (FIG. 2D). The protocol: Immunoprecipitation. MCF7, BT474 and MDA-MB-453 cell lines have been plated at 5×10^5 concentration in 60 mm plates. On subsequent day cells have been transfected with 1257 phosphopeptide and contrrol phosphopeptide. After 40 hours the cells have been washed two times with cold PBS and extracted with lysis buffer [(50 mM Tris HCl (pH 7.4), 250 mM NaCl, 0.1% Triton X-100, 5 mM EDTA, 50 mM NaF, 1 mM PMSF, 5 mM Na3VO4 e 50 mmol/L protease inhibitors (Roche, Milan, IT)]. Whole cell lysates have been imunoprecipitated with anti-p85 antibody (#06-496) in the presence of protein G (Pierce, Milan, IT). Whole proteins and immunocomplexes then have been subjected to 8% SDS-PAGE and transferred on nitrocellulose filter. The proteins have been detected by immunodecoration using anti-ErbB3 and anti-p110α antibodies.
The peptide has been transfected using Lipofectamine in all three cell lines. […] This binding is required in order PI3K kinase to be activated.

A further experiment deals with BT474 cells. The experiment can be described thus: Soft agar anchorage-independent growth. In kind it is cell-based, human. Particulars: compared to parental or scr peptide transfected cells. The protocol: (§1) Soft agar. […] Briefly cells (1×10^4) have been re-suspended in 5 ml of 0.3% agar in RPMI or DMEM supplemented with 10% FCS, and quickly stained on a solid layer of 1.2% agar in DMEM/RPMI. Cultures have been carried out for 4 weeks. Then colonies have been stained with viable colony specific neutral red solution (Sigma, Milan, IT), and then counted. Photographies have been taken using Leica DM IRE2 microscope and Leica FW4000 software (Leica Microsystems, Milan, IT).
(§2) Then it has been attempted to understand whether the peptide is suitable to reduce the cell ability to grow under anchorage-independence conditions.

The subject of another experiment is MCF7 cells. The experiment can be described thus: Soft agar anchorage-independent growth. Format: cell-based, human. Particulars: compared to parental or scr peptide transfected cells. The procedure: as §1, §2

Non-standard residues stand in square brackets, D forms with d. No end group written: not given here. pY = N[C@@H](Cc1ccc(OP(=O)(O)O)cc1)C(=O)O

T1 sequence (P27986 whole entry): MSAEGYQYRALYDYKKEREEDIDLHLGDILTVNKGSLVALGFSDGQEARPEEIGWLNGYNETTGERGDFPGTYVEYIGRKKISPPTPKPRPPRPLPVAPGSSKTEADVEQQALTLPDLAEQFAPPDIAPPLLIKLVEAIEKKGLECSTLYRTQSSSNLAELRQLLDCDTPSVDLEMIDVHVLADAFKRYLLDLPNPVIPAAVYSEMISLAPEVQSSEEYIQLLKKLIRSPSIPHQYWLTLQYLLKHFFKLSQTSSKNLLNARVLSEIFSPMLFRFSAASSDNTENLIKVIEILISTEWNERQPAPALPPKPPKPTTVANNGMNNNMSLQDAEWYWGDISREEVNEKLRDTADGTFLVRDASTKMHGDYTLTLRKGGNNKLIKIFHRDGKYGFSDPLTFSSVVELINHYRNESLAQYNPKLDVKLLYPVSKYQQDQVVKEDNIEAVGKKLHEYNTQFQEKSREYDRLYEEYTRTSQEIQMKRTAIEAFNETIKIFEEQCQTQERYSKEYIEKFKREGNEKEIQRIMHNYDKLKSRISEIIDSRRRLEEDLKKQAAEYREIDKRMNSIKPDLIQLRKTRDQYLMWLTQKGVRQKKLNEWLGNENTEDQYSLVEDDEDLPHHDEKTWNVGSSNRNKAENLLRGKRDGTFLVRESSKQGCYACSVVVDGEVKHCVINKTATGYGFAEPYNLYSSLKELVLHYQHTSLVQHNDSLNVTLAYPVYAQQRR

As to “RDGGGPGGDpYAAMGACPA (RDGGGPGGD[pY]AAMGACPA; listed as Homo sapiens) [1257 phosphopeptide]”, in experiment [1], the “inhibition of p85 and p110a interaction” value is given as “inhibits p85 from interacting with p110a”. In addition, the “reduction of colony number” value with BT474 cells and with MCF7 cells was “up to 80%” in each case.
